Measured values reported in patent US20260224714A1, “CYCLING LYSOSOMAL TARGETING ANTIBODY CONJUGATES” (Lycia Therapeutics, Inc., priority 2023, published 2026).

Key:
Type in all cases: cell-based
[1] = tested on: Alexa Fluor647 labelled human IgE; experiment: Uptake assay: internalization of Alexa Fluor 647 labelled IgE in wild type HepG2 cells (Example 6); settings: equimolar conjugate and AF647 IgE, 2 hours, median cellular AF647 intensity by flow cytometry, normalized to unconjugated parent protein
Description: (§1) The following experiments were performed with HepG2 hepatocellular carcinoma cells, grown in Eagle's Minimal Essential Media (EMEM) supplemented with 10% FBS and penicillin/streptomycin.
(§2) HepG2 cells (25,000) were plated in 96-well plates 48 hours before the experiment was performed. On the day of the experiment, indicated the conjugate was mixed with an equimolar stock of Alexa Fluor647 labelled human IgE (Enzo Life Sciences, BPD-DIA-HE 1) in fresh EMEM as a 600 nM stock. The precomplexed conjugate:IgE mixture was incubated at room temperature for 30 minutes. During the precomplexing step, media from HepG2 was removed, and 40 ul of EMEM with 1/100 Fc Receptor Blocking Solution (Biolegend Human TruStain FcX, 422302) was added. Cells incubated in the receptor blocking solution for 10 minutes while making serial dilutions (1:3) of conjugate:IgE stock solution in EMEM. 40 ul of the conjugate:IgE mixture in EMEM was then added to cells (six dilutions, with final concentrations ranging from 300 nM to 1.23 nM) for 2 hours before washing with DPBS and detaching with 0.25% Trypsin/EDTA. Cells were pelleted in 96-well conical bottom plates, washed once with FACS Buffer with BSA (Rockland Immunochemicals), and resuspended in FACS Buffer with BSA. Uptake of fluorescently labelled IgE was measured by analyzing median cellular AF647 intensity by flow cytometry.
(§3) Cells were incubated with equimolar ratio of conjugate and AF647 IgE at indicated concentrations, with data normalized to unconjugated parent protein (Oma S35HWY57H-LC).

[2] = tested on: Alexa Fluor647 labelled human IgE; experiment: Uptake assay: internalization of Alexa Fluor 647 labelled IgE in ASGPR1/2 KO HepG2 cells (Example 6); settings: equimolar conjugate and AF647 IgE, normalized to unconjugated parent protein
Description: as §1, §2, §3

[3] = tested on: LysoLight-labelled human IgE; experiment: Lysosomal degradation of LysoLight-labelled IgE in HepG2 cells, live cell imaging (Example 7); settings: equimolar conjugate:LysoLight IgE, area under the curve of deep red fluorescence over three days, normalized to unconjugated parent protein
Description: as §1
HepG2 cells (15,000) were plated in 96-well plates 72 hours before performing the experiment. On the day of the experiment, indicated the conjugate was diluted in fresh EMEM and mixed with an equimolar stock of LysoLight-labelled human IgE (Enzo Life Sciences, BPD-DIA-HE1), at 200 nM of each compound. The precomplexed conjugate:IgE mixture was incubated at room temperature for 30 minutes. During the precomplexing step, media from HepG2 was removed, and 40 ul of EMEM with 1/100 Fc Receptor Blocking Solution (Biolegend Human TruStain FcX, 422302) was added. Cells incubated in the receptor blocking solution for 10 minutes while making serial dilutions (1:3) of conjugate:IgE stock solution in EMEM. 40 ul of the conjugate:IgE mixture in EMEM was then added to cells (five dilutions, with final concentrations ranging from 100 nM to 1.23 nM). Cells were placed in an IncuCyte Live-Cell Analysis System (Sartorius) for long term live cell imaging analysis (10× magnification, 3 images per well). One hour after addition of compound, image acquisition to measure red fluorescence from the LysoLight probe was started, with further Images collected every hour for 72 hours. Fluorescence of the LysoLight probe only occurs when cleaved by lysosomal cathepsin proteases, confirming lysosomal delivery and degradation of target. After 72 hours, mean red fluorescence was measured for each time point, and the area under the curve of fluorescence overtime was used to measure total degradation over the 3-day time period.

HepG2 cells = experiment: Externalization of conjugates from a cell following internalization (cycling), high-throughput format (Example 11); settings: 50 nM conjugate 1 hour, stringent washes, Alexa Fluor 647-labelled a-human IgG 1 hour, FACS, normalized to unconjugated parent protein, average of two replicate wells
Description: as §1
The method was also adapted to a high-throughput format. In this assay, 25,000 HepG2 cells were plated in 96-well plates 48 hours before performing the experiment. The day of the experiment, cells were incubated with conjugate at indicated concentrations for 1 hour. Cells were then placed on ice to prevent trafficking/recycling during wash steps, and washed once with DPBS, once with sodium acetate buffer (20 mM, 150 mM NaCl, pH 5.2), once with Earle's Balanced Salt Solution (EBSS) adjusted to pH 2.5, and once again with DPBS, to remove conjugate from media and cell surface. Afterwards, 100 ul of prewarmed (to 37° C.) EMEM with 1 μg/ml of human a-IgG antibody conjugated to Alexa Fluor647 fluorophores was added to cells for 1 hour before washing with DPBS and detaching with 0.25% Trypsin/EDTA. Cells were pelleted in 96-well conical bottom plates, washed once with FACS Buffer with BSA (Rockland Immunochemicals), resuspended FACS Buffer with BSA and median AF647 intensity was analyzed by flow cytometry. The amount of conjugate capable of cycling to the cell surface (being externalized from the cell) and binding to the Alexa Fluor647 labelled α-IgG was measured by analyzing median cellular 647 fluorescence intensity by flow cytometry. […]. Reported values are the average of the values of two replicate wells.

recombinant IgE = experiment: Degradation of super-stoichiometric levels of target in HepG2 cells (Example 13, Table 31); settings: 1 nM conjugate and 25 nM IgE for three days, (A-B)/C IgE depleted relative to conjugate, average of two replicate wells
Description: as §1
For evaluation of compounds in a high throughput format, 25,000 HepG2 cells were plated in a 96-well plate. The following day, 50 ul of 1 nM conjugate and 25 nM recombinant IgE in EMEM were added to the cells. 50 ul of the initial stock of conjugate:IgE was saved to quantify for an initial time point. Three days later, the media was collected from cells, and both initial and 72 hour time points were quantified for IgE concentration using the MSD assay.
HepG2 cells were incubated in media containing 1 nM conjugate and 25 nM IgE for three days. Concentrations of IgE at beginning and end of experiment were quantified by ELISA-based assay. Molar equivalents of IgE depleted relative to conjugate added are shown, calculated as (A-B)/C, where A is the initial concentration of IgE, B is the concentration of IgE at day three, and C is the concentration of conjugate. Reported values are the average of the values of two replicate wells.

human IgE = experiment: Degradation of initial and subsequent dose of target in HepG2 cells (Example 12, Table 30); settings: normalized to unconjugated; for Normalized Fluorescence Post Wash Median Green: after wash, probe-conjugated IgE added for 4 hours, subsequent dose of target; for Normalized Fluorescence Precomplex Median Deep Red: precomplexed equimolar conjugate:IgE (cathepsin-cleavable quenched fluorescent probe) added for 2 hours, initial dose of target
Description: as §1
HepG2 cells (25,000) were plated in 96-well plates 48 hours before performing the experiment. On the day of the experiment, indicated conjugate was diluted in fresh EMEM as a 2× stock, and mixed with an equimolar stock of human IgE (Enzo Life Sciences, BPD-DIA-HE 1) conjugated to a cathepsin-cleavable quenched fluorescent probe. The precomplexed conjugate:IgE mixture was incubated at 37 degrees Celsius for 30 minutes. Media from HepG2 was removed, and conjugate:IgE mixture in EMEM was added to cells for 2 hours. Cells were then placed on ice to prevent trafficking/recycling during wash steps, and washed once with DPBS, once with sodium acetate buffer (20 mM, 150 mM NaCl, pH 5.2), once with Earle's Balanced Salt Solution (EBSS) adjusted to pH 2.5, and once again with DPBS, to remove conjugate from media and cell surface. Afterwards, 100 ul of prewarmed (to 37 degrees Celsius) EMEM with cathepsin-cleavable quenched fluorescent probe-conjugated IgE was added to cells for 4 hours before washing with DPBS and detaching with 0.25% Trypsin/EDTA. Cells were pelleted in 96-well conical bottom plates, washed once with FACS Buffer with BSA (Rockland Immunochemicals), resuspended FACS Buffer with BSA and median 488 and 647 intensity was analyzed by flow cytometry. Delivery of labelled IgE to the lysosome and subsequent cleavage of initial precomplexed IgE was measured by analyzing median cellular 647 intensity, while cleavage of the post wash addition of IgE, which should only be degraded by recycling conjugates which released the first round of precomplexed IgE, was analyzed by median cellular 488 intensity. HepG2 cells were treated with human IgE (Enzo Life Sciences, BPD-DIA-HE1) conjugated to a cathepsin-cleavable quenched deep red (647) fluorescent probe precomplexed to conjugate fortwo hours, then washed, and fresh media with IgE conjugated to a green (488) cathepsin-cleavable fluorescent probe was then added without conjugate. […] Fluorescence values were measured by FACS and normalized to unconjugated parent protein. Reported values are the average of the values of two replicate wells.

SMILES | Normalized Fluorescence 3.7 nM WT [1] | Normalized Fluorescence 100 nM WT [1] | Normalized Fluorescence 100 nM ASGPR KO [2] | Normalized Fluorescence 3.7 nM [3] | Normalized Fluorescence 100 nM [3] | Normalized Fluorescence (HepG2 cells) | Average Degradation (Molar equivalents) (recombinant IgE) | Normalized Fluorescence Post Wash Median Green (human IgE) | Normalized Fluorescence Precomplex Median Deep Red (human IgE)
CC(=O)N[C@@H]1[C@@H](O)[C@@H](O)[C@@H](CO)O[C@@H]1CCCOCCOCCNC(=O)NCCCC(CCCNC(=O)NCCOCCOCCC[C@H]1O[C@H](CO)[C@H](O)[C@H](O)[C@H]1NC(C)=O)(CCCNC(=O)NCCOCCOCCC[C@H]1O[C@H](CO)[C@H](O)[C@H](O)[C@H]1NC(C)=O)NC(=O)CBr [Compound 2308] | 55.1 | 261.4 | 1.1 | 6.7 | 2.3 | 31.6 | 2.5 | 2.8 | 3.3
COC[C@H]1OC[C@H](Nc2nc(OCCOCCOCCNC(=O)NCCCC(CCCNC(=O)NCCOCCOCCOc3cc(C(F)(F)F)nc(N[C@H]4CO[C@H](COC)[C@H](O)[C@@H]4O)n3)(CCCNC(=O)NCCOCCOCCOc3cc(C(F)(F)F)nc(N[C@H]4CO[C@H](COC)[C@H](O)[C@@H]4O)n3)NC(=O)CCOCCOCCOCCNS(=O)(=O)c3ccc(N4C(=O)C=CC4=O)cc3)cc(C(F)(F)F)n2)[C@@H](O)[C@H]1O [Compound 2309] | 38.9 | 201.6 | 1.1 | 6.7 | 3.1 | 27.1 | 4.1 | 2.5 | 3.0
O=C(CCOCCOCCOCCNS(=O)(=O)c1ccc(N2C(=O)C=CC2=O)cc1)NC(CCCNC(=O)NCCOCCOCCOCc1csc(N[C@H]2CO[C@H](CO)[C@H](O)[C@@H]2O)n1)(CCCNC(=O)NCCOCCOCCOCc1csc(N[C@H]2CO[C@H](CO)[C@H](O)[C@@H]2O)n1)CCCNC(=O)NCCOCCOCCOCc1csc(N[C@H]2CO[C@H](CO)[C@H](O)[C@@H]2O)n1 [Compound 2310] | 30.3 | 127.9 | 1.1 | 4.3 | 2.4 | 16.6 | 4.0 | 2.0 | 2.3
O=C(CCOCCOCCOCCNS(=O)(=O)c1ccc(N2C(=O)C=CC2=O)cc1)NC(CCCNC(=O)NCCOCCOCCCc1ccnc(N[C@H]2CO[C@H](CO)[C@H](O)[C@@H]2O)n1)(CCCNC(=O)NCCOCCOCCCc1ccnc(N[C@H]2CO[C@H](CO)[C@H](O)[C@@H]2O)n1)CCCNC(=O)NCCOCCOCCCc1ccnc(N[C@H]2CO[C@H](CO)[C@H](O)[C@@H]2O)n1 [Compound 2311] | 22.6 | 92.9 | 1.1 | 2.2 | 2.2 | 11.6 | 0.5 | 1.7 | 2.0
CN1CCN(C[C@H]2OC[C@H](Nc3nc(OCCOCCOCCNC(=O)NCCCC(CCCNC(=O)NCCOCCOCCOc4cc(C(F)(F)F)nc(N[C@H]5CO[C@H](CN6CCN(C)CC6)[C@H](O)[C@@H]5O)n4)(CCCNC(=O)NCCOCCOCCOc4cc(C(F)(F)F)nc(N[C@H]5CO[C@H](CN6CCN(C)CC6)[C@H](O)[C@@H]5O)n4)NC(=O)CCOCCOCCOCCNS(=O)(=O)c4ccc(N5C(=O)C=CC5=O)cc4)cc(C(F)(F)F)n3)[C@@H](O)[C@H]2O)CC1 [Compound 2312] | 64.9 | 242.9 | 1.0 | 11.1 | 4.2 | 44.5 | 4.1 | 3.0 | 3.5
